According to ChEMBL document CHEMBL4229332, “Novel multi-target azinesulfonamides of cyclic amine derivatives as potential antipsychotics with pro-social and pro-cognitive effects” (Eur J Med Chem, 2018):

How the values were obtained:
[1] = target: 5-hydroxytryptamine receptor 2B (Homo sapiens) (UniProt P41595); test: Agonist activity at human 5-HT2BR expressed in CHO cells assessed as induction of IP1 accumulation at 10^-6 M after 30 mins by HTRF method; format: functional, cell-based
[2] = tested on: Cavia porcellus; test: Cardiotoxicity in guinea pig assessed as effect on frequence of heart rate at 5 mg/kg, ip measured after 20 mins by ECG analysis (reference value: 262 to 296 /min); format: toxicity, organism-based; details: in vivo
[3] = Ratio of drug level in brain to plasma in Wistar rat at 3 mg/kg, ip measured after 60 mins by LC-MS/MS analysis; format: ADME, organism-based; details: read-out: BPR
[4] = species: Rattus norvegicus; test: animal or person; details: Sprague-Dawley, ip, read-out: MED
Description: Antipsychotic activity in ip dosed Sprague-Dawley rat assessed as suppression of avoidance behavior by avoiding foot shock administered 60 mins prior to test by conditioned avoidance response test

[5] = target: Cytochrome P450 1A2 (Homo sapiens, UniProt P05177); test: Inhibition of human supersome CYP1A2 using caffeine as substrate assessed as caffeine 3-N-demethylation after 30 mins by HPLC-UV detection; format: ADME
[6] = target: 5-hydroxytryptamine receptor 7 (Homo sapiens, UniProt P34969); test: biochemical
Description: Displacement of [3H]-5-CT from human 5-HT7R expressed in HEK293 cell membranes after 1 hr at 37 degC by microbeta counting method

[7] = tested on: Cavia porcellus; test: Cardiotoxicity in guinea pig assessed as effect on QTc interval time at 5 mg/kg, ip measured after 20 mins by ECG analysis (reference value: […] to […] milliseconds); format: toxicity, organism-based; details: in vivo
[8] = Drug level in Wistar rat plasma at 3 mg/kg, ip measured after 60 mins by LC-MS/MS analysis; format: ADME, organism-based
[9] = tested on: Cavia porcellus; test: Cardiotoxicity in guinea pig assessed as effect on QRS interval time at 5 mg/kg, ip measured after 20 mins by ECG analysis (reference value: 26.2 to 31.6 milliseconds); format: toxicity, organism-based; details: in vivo
[10] = tested on: Cavia porcellus; test: Cardiotoxicity in guinea pig assessed as effect on PR interval time at 5 mg/kg, ip measured after 30 mins by ECG analysis (reference value: 58.8 to 63.8 milliseconds); format: toxicity, organism-based; details: in vivo, 0.5 h
[11] = tested on: Cavia porcellus; test: Cardiotoxicity in guinea pig assessed as effect on QRS interval time at 5 mg/kg, ip measured after 50 mins by ECG analysis (reference value: 26.2 to 31.6 milliseconds); format: toxicity, organism-based; details: in vivo
[12] = tested on: Cavia porcellus; test: Cardiotoxicity in guinea pig assessed as effect on RR interval time at 5 mg/kg, ip measured after 20 mins by ECG analysis (reference value: 208.4 to 238.4 milliseconds); format: toxicity, organism-based; details: in vivo
[13] = tested on: Cavia porcellus; test: Cardiotoxicity in guinea pig assessed as effect on RR interval time at 5 mg/kg, ip measured after 50 mins by ECG analysis (reference value: 208.4 to 238.4 milliseconds); format: toxicity, organism-based; details: in vivo
[14] = Drug level in Wistar rat brain at 3 mg/kg, ip measured after 60 mins by LC-MS/MS analysis; format: ADME, organism-based; details: read-out: Drug uptake
[15] = tested on: Cavia porcellus; test: Cardiotoxicity in guinea pig assessed as effect on QT interval time at 5 mg/kg, ip measured after 20 mins by ECG analysis (reference value: 127.6 to 131.2 milliseconds); format: toxicity, organism-based; details: in vivo
[16] = tested on: Cavia porcellus; test: Cardiotoxicity in guinea pig assessed as effect on frequence of heart rate at 5 mg/kg, ip measured after 30 mins by ECG analysis (reference value: 262 to 296 /min); format: toxicity, organism-based; details: in vivo, 0.5 h
[17] = target: Cytochrome P450 2C19 (Homo sapiens, UniProt P33261); test: Inhibition of human supersome CYP2C19 using perazine as substrate assessed as perazine N-demethylation after 30 mins by HPLC-UV detection; format: ADME
[18] = target: T1, 5-hydroxytryptamine receptor 1A (Homo sapiens) (UniProt P08908); test: Partial agonist activity at human 5-HT1AR expressed in CHO-K1 cells assessed as increase in cAMP accumulation at 10^-6 M by chemiluminescence-based assay relative to serotonin; format: functional, cell-based
T1 sequence (whole entry): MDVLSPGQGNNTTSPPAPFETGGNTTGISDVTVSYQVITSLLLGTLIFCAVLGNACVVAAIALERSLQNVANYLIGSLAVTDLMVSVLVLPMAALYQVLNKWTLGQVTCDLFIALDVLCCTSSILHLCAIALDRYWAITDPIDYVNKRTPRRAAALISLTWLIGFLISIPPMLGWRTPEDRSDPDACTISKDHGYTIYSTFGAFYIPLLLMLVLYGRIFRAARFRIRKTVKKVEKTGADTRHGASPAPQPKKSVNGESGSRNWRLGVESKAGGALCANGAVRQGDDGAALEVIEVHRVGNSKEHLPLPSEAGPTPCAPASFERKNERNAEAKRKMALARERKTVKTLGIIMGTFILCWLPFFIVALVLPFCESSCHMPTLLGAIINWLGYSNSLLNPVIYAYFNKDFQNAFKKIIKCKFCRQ

[19] = tested on: Cavia porcellus; test: Cardiotoxicity in guinea pig assessed as effect on frequence of heart rate at 5 mg/kg, ip measured after 40 mins by ECG analysis (reference value: 262 to 296 /min); format: toxicity, organism-based; details: in vivo
[20] = target: Voltage-gated inwardly rectifying potassium channel KCNH2 (Homo sapiens, UniProt Q12809); test: Inhibition of human ERG expressed in CHOK1 cells at 10 to 50 uM by whole-cell patch clamp method; format: cell-based
[21] = tested on: Cavia porcellus; test: Cardiotoxicity in guinea pig assessed as effect on QRS interval time at 5 mg/kg, ip measured after 40 mins by ECG analysis (reference value: 26.2 to 31.6 milliseconds); format: toxicity, organism-based; details: in vivo
[22] = Intrinsic clearance in rat liver microsomes at 20 uM at 37 degC measured after 120 mins in presence of NADPH-regenerating system by UPLC-MS analysis; format: ADME, microsome; details: read-out: CLH
[23] = target: Cytochrome P450 3A4 (Homo sapiens, UniProt P08684); test: Inhibition of human supersome CYP3A4 using testosterone as substrate assessed as testosterone 6beta-hydroxylation after 30 mins by HPLC-UV detection; format: ADME
[24] = tested on: Cavia porcellus; test: Cardiotoxicity in guinea pig assessed as effect on QRS interval time at 5 mg/kg, ip measured after 10 mins by ECG analysis (reference value: 26.2 to 31.6 milliseconds); format: toxicity, organism-based; details: in vivo
[25] = tested on: Rattus norvegicus; test: Cardiotoxicity in Wistar rat assessed as effect on blood pressure at 2 to 5 mg/kg, iv; format: toxicity, organism-based; details: in vivo
[26] = tested on: Cavia porcellus; test: Cardiotoxicity in guinea pig assessed as effect on QT interval time at 5 mg/kg, ip measured after 30 mins by ECG analysis (reference value: 127.6 to 131.2 milliseconds); format: toxicity, organism-based; details: in vivo, 0.5 h
[27] = tested on: Cavia porcellus; test: Cardiotoxicity in guinea pig assessed as effect on QTc interval time at 5 mg/kg, ip measured after 10 mins by ECG analysis (reference value: […] to […] milliseconds); format: toxicity, organism-based; details: in vivo
[28] = tested on: Cavia porcellus; test: Cardiotoxicity in guinea pig assessed as effect on RR interval time at 5 mg/kg, ip measured after 60 mins by ECG analysis (reference value: 208.4 to 238.4 milliseconds); format: toxicity, organism-based; details: in vivo, 1 h
[29] = tested on: Cavia porcellus; test: Cardiotoxicity in guinea pig assessed as effect on PR interval time at 5 mg/kg, ip measured after 60 mins by ECG analysis (reference value: 58.8 to 63.8 milliseconds); format: toxicity, organism-based; details: in vivo, 1 h
[30] = tested on: Cavia porcellus; test: Cardiotoxicity in guinea pig assessed as effect on QRS interval time at 5 mg/kg, ip measured after 80 mins by ECG analysis (reference value: 26.2 to 31.6 milliseconds); format: toxicity, organism-based; details: in vivo

Chain of Cytochrome P450 3A4 (P08684 whole entry): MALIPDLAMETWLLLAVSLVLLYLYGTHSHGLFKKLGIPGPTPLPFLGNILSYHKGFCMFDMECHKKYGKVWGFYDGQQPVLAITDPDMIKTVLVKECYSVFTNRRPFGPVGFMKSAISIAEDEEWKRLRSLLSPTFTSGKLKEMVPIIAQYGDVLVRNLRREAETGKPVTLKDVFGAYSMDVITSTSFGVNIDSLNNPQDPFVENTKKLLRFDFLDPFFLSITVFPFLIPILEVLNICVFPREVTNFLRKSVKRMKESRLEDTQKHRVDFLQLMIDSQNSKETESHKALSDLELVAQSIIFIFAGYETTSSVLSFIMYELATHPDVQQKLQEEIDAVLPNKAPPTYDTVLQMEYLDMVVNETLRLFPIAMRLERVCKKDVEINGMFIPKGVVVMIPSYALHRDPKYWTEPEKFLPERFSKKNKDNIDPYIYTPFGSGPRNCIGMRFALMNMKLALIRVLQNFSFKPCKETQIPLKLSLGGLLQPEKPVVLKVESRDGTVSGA
Chain of 5-hydroxytryptamine receptor 7 (P34969 whole entry): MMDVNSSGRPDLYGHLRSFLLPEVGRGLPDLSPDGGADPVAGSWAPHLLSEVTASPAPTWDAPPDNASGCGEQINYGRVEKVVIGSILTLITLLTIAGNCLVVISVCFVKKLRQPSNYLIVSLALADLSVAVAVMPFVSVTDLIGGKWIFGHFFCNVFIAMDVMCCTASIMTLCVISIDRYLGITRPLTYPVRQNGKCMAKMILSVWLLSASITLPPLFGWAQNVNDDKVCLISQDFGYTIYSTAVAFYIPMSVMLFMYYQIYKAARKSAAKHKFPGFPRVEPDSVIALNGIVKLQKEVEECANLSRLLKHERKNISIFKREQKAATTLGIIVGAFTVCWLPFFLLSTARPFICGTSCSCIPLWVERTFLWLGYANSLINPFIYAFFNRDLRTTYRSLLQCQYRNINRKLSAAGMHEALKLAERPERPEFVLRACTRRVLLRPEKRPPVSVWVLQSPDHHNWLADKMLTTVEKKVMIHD
Chain of Cytochrome P450 1A2 (P05177 whole entry): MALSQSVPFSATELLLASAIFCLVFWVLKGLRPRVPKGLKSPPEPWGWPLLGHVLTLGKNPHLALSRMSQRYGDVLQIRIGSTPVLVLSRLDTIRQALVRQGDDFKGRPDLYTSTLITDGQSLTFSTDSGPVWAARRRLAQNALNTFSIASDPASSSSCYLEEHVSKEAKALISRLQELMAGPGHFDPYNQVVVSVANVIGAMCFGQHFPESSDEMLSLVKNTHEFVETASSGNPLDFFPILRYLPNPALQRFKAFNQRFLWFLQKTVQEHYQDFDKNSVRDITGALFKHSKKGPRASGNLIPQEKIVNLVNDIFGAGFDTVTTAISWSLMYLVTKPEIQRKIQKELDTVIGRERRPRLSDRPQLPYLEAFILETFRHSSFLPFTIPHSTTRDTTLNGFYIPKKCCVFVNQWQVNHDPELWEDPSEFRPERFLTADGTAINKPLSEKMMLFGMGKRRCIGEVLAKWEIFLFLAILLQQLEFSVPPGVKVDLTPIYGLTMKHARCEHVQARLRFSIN
Chain of Voltage-gated inwardly rectifying potassium channel KCNH2 (Q12809 whole entry): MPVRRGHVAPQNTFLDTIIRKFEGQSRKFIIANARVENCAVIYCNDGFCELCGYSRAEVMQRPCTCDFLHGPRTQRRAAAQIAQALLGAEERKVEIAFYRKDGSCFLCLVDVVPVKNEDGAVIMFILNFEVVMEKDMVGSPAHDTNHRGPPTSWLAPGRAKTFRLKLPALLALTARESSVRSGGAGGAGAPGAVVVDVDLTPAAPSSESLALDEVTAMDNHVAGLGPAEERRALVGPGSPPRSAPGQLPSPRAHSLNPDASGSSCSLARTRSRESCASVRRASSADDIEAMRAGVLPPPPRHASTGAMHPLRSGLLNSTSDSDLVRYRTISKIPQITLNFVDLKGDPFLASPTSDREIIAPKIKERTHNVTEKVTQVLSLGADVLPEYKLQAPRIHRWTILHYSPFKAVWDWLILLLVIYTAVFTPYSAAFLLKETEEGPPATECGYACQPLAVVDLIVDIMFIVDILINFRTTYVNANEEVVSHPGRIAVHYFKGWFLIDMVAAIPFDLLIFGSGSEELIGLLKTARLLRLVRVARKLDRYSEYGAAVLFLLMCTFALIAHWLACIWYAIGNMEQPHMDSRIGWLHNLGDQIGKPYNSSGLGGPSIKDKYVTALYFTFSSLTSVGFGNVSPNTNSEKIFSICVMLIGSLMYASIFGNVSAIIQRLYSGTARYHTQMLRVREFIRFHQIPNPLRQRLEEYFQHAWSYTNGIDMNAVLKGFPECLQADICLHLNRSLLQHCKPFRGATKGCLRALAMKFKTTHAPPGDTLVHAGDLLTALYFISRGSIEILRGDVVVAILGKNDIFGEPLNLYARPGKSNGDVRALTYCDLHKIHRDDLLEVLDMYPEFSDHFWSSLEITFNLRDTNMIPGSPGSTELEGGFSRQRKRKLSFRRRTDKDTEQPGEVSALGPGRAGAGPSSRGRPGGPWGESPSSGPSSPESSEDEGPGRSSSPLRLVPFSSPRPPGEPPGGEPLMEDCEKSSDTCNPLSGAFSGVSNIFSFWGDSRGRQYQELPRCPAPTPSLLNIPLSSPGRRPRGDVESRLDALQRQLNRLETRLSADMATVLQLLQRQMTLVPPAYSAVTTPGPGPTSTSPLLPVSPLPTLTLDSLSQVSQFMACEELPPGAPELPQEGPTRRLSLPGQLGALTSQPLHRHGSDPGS
Chain of Cytochrome P450 2C19 (P33261 whole entry): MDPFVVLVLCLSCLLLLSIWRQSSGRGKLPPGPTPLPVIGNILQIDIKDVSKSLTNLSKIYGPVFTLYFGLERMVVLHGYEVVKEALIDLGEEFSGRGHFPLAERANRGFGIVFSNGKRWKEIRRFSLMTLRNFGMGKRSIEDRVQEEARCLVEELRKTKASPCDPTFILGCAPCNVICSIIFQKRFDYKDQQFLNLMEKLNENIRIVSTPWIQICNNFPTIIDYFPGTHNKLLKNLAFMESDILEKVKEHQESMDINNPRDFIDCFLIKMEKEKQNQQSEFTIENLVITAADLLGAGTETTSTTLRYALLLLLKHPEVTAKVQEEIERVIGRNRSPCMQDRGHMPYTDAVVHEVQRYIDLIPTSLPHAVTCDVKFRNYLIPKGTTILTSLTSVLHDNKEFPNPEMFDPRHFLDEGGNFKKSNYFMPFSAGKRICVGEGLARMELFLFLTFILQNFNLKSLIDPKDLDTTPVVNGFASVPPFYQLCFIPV
Chain of 5-hydroxytryptamine receptor 2B (Homo sapiens) (P41595 whole entry): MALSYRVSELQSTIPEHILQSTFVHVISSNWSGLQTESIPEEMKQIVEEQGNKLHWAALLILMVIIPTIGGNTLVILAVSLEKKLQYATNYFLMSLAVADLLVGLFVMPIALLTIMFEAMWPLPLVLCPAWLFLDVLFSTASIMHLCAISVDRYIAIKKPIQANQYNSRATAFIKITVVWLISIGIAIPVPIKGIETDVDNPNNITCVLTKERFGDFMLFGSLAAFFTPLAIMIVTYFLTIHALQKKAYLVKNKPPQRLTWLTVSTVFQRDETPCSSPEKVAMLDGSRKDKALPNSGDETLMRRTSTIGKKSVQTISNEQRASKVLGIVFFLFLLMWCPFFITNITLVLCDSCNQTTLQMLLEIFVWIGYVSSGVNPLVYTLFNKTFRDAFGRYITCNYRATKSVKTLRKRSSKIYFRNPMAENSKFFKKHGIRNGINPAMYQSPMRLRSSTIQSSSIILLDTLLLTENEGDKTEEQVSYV

**Q.** What does the source list for O=S(=O)(c1cncc2ccccc12)N1CCC[C@H]1CCN1CCN(c2nsc3ccccc23)CC1?
**A.** Kb [1]: 0.003 µM; Activity [2]: 296 min⁻¹; Kp at 1 h [3]: 0.96; minimal effective dose [4]: 3 mg/kg; IC50 [5]: > 100 µM; Ki [6]: 0.009 µM; Time [7]: 269.6 ms; concentration at 1 h [8]: 50.2 nM; Time [9]: 26 ms; Time [10]: 58.8 ms; Time [11]: 27 ms; Time [12]: 206 ms; Time [13]: 210.6 ms; concentration at 1 h [14]: 49.4 nM; Time [15]: 121.6 ms; Activity [16]: 287 min⁻¹; IC50 [17]: 50 µM; Activity [18]: 5.3%; Activity [19]: 288 min⁻¹; inhibition (INH) [20]: Active; Time [21]: 27.6 ms; microsomal CLint at 20 µM [22]: 1.73 µL/min/mg; IC50 [23]: 23 µM; Time [24]: 25.4 ms; Activity [25]: Non-Toxic; Time [26]: 128.8 ms; Time [27]: 272.2 ms; Time [28]: 210.4 ms; Time [29]: 63.2 ms; Time [30]: 26 ms

**Q.** With O=S(=O)(c1cncc2ccccc12)N1CCC[C@H]1CCN1CCN(c2cccc3sccc23)CC1 as the compound, how does the inhibition [1] read?
**A.** 14%

**Q.** What about the Activity [2] of the same compound?
**A.** 256 min⁻¹

**Q.** And the Kp at 1 h [3]?
**A.** 2.13

**Q.** What about the minimal effective dose [4] of the same compound?
**A.** 3 mg/kg

**Q.** And the IC50 [5]?
**A.** > 100 µM

**Q.** What about the Ki [6] of the same compound?
**A.** 0.019 µM

**Q.** And the Time [7]?
**A.** 265 ms

**Q.** What about the concentration at 1 h [8] of the same compound?
**A.** 45 nM

**Q.** What about the Time [9] of the same compound?
**A.** 31.6 ms

**Q.** What about the Time [10] of the same compound?
**A.** 62.8 ms

**Q.** And the Time [11]?
**A.** 31.6 ms

**Q.** And the Time [12]?
**A.** 231.2 ms

**Q.** And the Time [13]?
**A.** 220 ms

**Q.** What about the concentration at 1 h [14] of the same compound?
**A.** 89.3 nM

**Q.** And the Time [15]?
**A.** 129 ms

**Q.** What about the Activity [16] of the same compound?
**A.** 264 min⁻¹

**Q.** What about the IC50 [17] of the same compound?
**A.** > 100 µM

**Q.** What about the Activity [18] of the same compound?
**A.** 40.6%

**Q.** And the Activity [19]?
**A.** 263 min⁻¹

**Q.** What about the “inhibition (INH)” value [20] of the same compound?
**A.** Not Active

**Q.** What about the Time [21] of the same compound?
**A.** 31.2 ms

**Q.** And the microsomal CLint at 20 µM [22]?
**A.** 2.81 µL/min/mg

**Q.** And the IC50 [23]?
**A.** 10 µM

**Q.** And the Time [24]?
**A.** 30.8 ms

**Q.** What about the Activity [25] of the same compound?
**A.** Non-Toxic

**Q.** What about the Time [26] of the same compound?
**A.** 126.8 ms

**Q.** What about the Time [27] of the same compound?
**A.** 267 ms

**Q.** And the Time [28]?
**A.** 219.8 ms

**Q.** What about the Time [29] of the same compound?
**A.** 63.4 ms

**Q.** And the Time [30]?
**A.** 32 ms
